Test results reported in patent publication US10683297B2 (Sunshine Lake Pharma Co., Ltd., priority 2017, dated 2020).

Experiments:
Assay type in all cases: biochemical
Settings in all cases: [γ-33P-ATP] 10 μM or KM values; 40 minutes at room temperature
[1] = molecular target: T1, Aurora-B (h) (Homo sapiens, UniProt Q96GD4); experiment: Aurora-B (h) kinase assay
T1 construct: purchased Millipore UK Ltd (assays performed there as a service)
Procedure: (§1) The above assay procedure can be used to determine the IC50 for inhibition and/or the inhibition constant, Ki. […] The IC50 value is estimated by preparing a 10 point curve using a ½ log dilution series (for example, a typical curve may be prepared using the following compound concentrations: 3 μM, 1 μM, 0.3 μM, 0.1 μM, 0.03 μM, 0.01 μM, 0.003 μM, 0.001 μM, 0.0003 μM and 0 μM).
(§2) Aurora-B (h) is incubated with 8 mM MOPS pH 7.0, 0.2 mM EDTA, 30 μM […], 10 mM MgAcetate and [γ-^33PATP] […] The reaction is initiated by the addition of the MgATP mix. After incubation for 40 minutes at room temperature, the reaction is stopped by the addition of a 3% phosphoric acid solution. 10 μL of the reaction is then spotted onto a P30 filtermat and washed three times for 5 minutes in 75 mM phosphoric acid and once in methanol prior to drying and scintillation counting.
(§3) The kinase assays described herein were performed at Millipore UK Ltd, Dundee Technology Park, Dundee DD2 1SW, UK.

[2] = molecular target: T2, JAK3 (h) (Homo sapiens, UniProt P52333); experiment: JAK3 (h) kinase assay
T2 construct: purchased Millipore UK Ltd (assays performed there as a service)
T2 sequence (P52333 1-1124): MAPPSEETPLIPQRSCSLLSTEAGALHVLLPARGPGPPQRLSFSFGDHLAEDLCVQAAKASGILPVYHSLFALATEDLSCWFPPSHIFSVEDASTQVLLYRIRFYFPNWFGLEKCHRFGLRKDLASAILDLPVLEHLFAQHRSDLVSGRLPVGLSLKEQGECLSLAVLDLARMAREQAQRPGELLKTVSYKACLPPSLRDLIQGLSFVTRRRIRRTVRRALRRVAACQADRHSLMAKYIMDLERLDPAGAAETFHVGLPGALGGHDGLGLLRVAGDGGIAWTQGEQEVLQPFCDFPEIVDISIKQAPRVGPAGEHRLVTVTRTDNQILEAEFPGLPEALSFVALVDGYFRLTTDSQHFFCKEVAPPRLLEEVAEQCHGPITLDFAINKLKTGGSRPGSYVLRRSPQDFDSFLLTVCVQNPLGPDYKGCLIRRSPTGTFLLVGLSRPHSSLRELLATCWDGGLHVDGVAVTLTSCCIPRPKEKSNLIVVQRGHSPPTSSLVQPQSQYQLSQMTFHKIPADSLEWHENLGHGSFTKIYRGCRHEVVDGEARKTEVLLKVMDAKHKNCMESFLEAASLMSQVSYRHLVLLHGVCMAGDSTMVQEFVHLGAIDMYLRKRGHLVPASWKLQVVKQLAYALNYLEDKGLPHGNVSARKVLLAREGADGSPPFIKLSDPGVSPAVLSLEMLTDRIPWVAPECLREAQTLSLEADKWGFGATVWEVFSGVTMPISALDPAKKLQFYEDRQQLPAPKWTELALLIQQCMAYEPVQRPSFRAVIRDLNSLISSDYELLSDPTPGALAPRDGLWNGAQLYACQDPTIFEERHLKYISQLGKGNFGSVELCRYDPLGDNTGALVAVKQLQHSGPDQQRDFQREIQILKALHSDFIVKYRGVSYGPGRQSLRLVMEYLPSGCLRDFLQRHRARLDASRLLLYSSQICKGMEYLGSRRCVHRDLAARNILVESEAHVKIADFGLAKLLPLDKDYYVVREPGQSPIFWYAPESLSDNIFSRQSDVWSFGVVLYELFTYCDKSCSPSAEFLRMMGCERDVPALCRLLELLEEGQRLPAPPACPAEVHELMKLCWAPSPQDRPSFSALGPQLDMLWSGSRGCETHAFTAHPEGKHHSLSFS
Procedure: (§4) Kinase assays can be performed by measurement of incorporation of γ-^33P ATP into immobilized myelin basic protein (MBP). High binding white 384 well plates (Greiner) are coated with MBP (Sigma # M-1891) by incubation of 60 μL well of 20 μg/mL MBP in Tris-buffered saline (TBS; 50 mM Tris pH 8.0, 138 mM NaCl, 2.7 mM KCl) for 24 h at 4° C. Plates are washed 3× with 100 μL TBS. Kinase reactions are carried out in a total volume of 34 μL in kinase buffer (according to the need to make, for example, 5 mM Hepes pH 7.6, 15 mM NaCl, 0.01% bovine gamma globulin (Sigma #1-5506), 10 mM MgCl2, 1 mM DTT, 0.02% TritonX-100). Compound dilutions are performed in DMSO and added to assay wells to a final DMSO concentration of 1%. Each data point is measured in duplicate, and at least two duplicate assays are performed for each individual compound determination. Enzyme is added to final concentrations of 10 nM or 20 nM, for example. A mixture of unlabeled ATP and γ-^33P ATP is added to start the reaction (2×10^6 cpm of γ-^33P ATP per well (3000 Ci/mmole) and 10 μM unlabeled ATP, typically. The reactions are carried out for 1 hour at room temperature with shaking. Plates are washed 7× with TBS, followed by the addition of 50 μL well scintillation fluid (Wallac). Plates are read using a Wallac Trilux counter. This is only one format of such assays; various other formats are possible, as known to one skilled in the art.
as §1
[…] The reaction is initiated by the addition of the MgATP mix. After incubation for 40 minutes at room temperature, the reaction is stopped by the addition of 3% phosphoric acid solution. 10 μL of the reaction is then spotted onto a P30 filtermat and washed three times for 5 minutes in 75 mM phosphoric acid and once in methanol prior to drying and scintillation counting.
as §3

[3] = molecular target: T3, TYK2 (h) (Homo sapiens, UniProt P29597); experiment: TYK2 (h) kinase assay
T3 construct: purchased Millipore UK Ltd (assays performed there as a service)
Procedure: as §4, §1
as §2, with “TYK2 (h)” for “Aurora-B (h)”, “EDTA, 250” for “EDTA, 30”, “and [γ-^33P-ATP]” for “and [γ-^33PATP]”, “of” for “of a”
as §3

T1 sequence (Q96GD4 whole entry): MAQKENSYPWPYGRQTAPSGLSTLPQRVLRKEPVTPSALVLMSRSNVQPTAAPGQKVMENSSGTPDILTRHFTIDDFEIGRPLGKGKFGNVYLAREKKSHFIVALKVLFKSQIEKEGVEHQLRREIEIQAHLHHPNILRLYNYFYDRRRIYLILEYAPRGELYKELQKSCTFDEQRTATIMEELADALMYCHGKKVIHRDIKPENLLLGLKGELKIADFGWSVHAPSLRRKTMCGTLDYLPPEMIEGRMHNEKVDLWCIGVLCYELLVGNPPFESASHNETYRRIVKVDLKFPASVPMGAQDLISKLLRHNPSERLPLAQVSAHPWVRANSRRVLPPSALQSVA
T3 sequence (P29597 whole entry): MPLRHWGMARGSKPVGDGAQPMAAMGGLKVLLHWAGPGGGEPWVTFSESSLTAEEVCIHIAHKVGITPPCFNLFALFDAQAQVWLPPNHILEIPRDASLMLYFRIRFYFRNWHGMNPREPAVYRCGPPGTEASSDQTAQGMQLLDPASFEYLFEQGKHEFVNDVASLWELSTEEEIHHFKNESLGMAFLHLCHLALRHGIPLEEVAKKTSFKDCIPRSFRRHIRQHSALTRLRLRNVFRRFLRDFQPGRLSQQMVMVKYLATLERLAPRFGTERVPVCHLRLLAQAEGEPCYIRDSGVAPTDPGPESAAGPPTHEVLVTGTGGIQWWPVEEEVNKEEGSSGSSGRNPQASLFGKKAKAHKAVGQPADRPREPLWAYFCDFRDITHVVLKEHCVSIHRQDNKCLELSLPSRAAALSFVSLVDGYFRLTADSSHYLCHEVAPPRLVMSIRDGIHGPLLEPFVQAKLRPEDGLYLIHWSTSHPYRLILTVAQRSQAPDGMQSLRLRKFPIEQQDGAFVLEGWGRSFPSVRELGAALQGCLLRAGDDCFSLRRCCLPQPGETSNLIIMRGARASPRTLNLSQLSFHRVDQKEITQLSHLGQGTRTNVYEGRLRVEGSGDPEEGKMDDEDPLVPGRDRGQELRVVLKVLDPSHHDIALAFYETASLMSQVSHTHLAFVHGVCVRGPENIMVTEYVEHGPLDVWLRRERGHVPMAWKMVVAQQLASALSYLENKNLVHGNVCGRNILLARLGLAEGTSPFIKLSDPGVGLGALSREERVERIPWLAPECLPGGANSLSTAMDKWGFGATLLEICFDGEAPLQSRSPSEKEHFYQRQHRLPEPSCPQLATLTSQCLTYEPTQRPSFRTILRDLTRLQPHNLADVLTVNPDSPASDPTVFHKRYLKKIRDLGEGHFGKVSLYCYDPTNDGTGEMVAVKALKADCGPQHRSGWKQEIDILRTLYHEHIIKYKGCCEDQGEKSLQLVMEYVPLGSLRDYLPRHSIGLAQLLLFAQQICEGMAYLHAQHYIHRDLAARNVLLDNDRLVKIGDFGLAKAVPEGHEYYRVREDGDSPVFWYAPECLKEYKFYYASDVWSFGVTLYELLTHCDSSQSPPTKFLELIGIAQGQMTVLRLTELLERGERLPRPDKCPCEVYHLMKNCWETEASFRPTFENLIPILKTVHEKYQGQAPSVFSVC

Row | IC50 [1] | IC50 [2] | IC50 [3] | Compound
1 |  | 60 nM | 2 nM | Cc1nc2cc(Nc3ncc(Cl)c(NC4CCN(c5ccc(C#N)cn5)CC4)n3)ccn2n1 [Example 32, 6-(4-((5-chloro-2-((2-methyl-[1,2,4]triazolo[1,5-a]pyridin-7-yl)amino)pyrimidin-4-yl)amino)piperidin-1-yl)nicotinonitrile]
2 | 793 nM |  | 8 nM | CC(C)(O)Cc1nc2ccc(Nc3ncc(Cl)c(NC4CCN(c5ccc(C#N)cn5)CC4)n3)cn2n1 [Example 67, 6-(4-((5-chloro-2-((2-(2-hydroxy-2-methylpropyl)-[1,2,4]triazolo[1,5-a]pyridin-6-yl)amino)pyrimidin-4-yl)amino)piperidin-1-yl)nicotinonitrile]
3 | 223 nM |  |  | CC(C)(O)c1cnc2cc(Nc3ncc(Cl)c(NC4CCN(c5ccc(C#N)cn5)CC4)n3)ccn12 [Example 68, 6-(4-((5-chloro-2-((3-(2-hydroxypropan-2-yl)imidazo[1,2-a]pyridin-7-yl)amino)pyrimidin-4-yl)amino)piperidin-1-yl)nicotinonitrile]
4 | 45 nM | 5 nM | 0.7 nM | CC(C)(O)Cn1nnc2cc(Nc3ncc(Cl)c(NC4CCN(c5ccc(C#N)cn5)CC4)n3)ccc21 [Example 69, 6-(4-((5-chloro-2-((1-(2-hydroxy-2-methylpropyl)-1H-benzo[d][1,2,3]triazol-5-yl)amino)pyrimidin-4-yl)amino)piperidin-1-yl)nicotinonitrile]
5 | 125 nM |  |  | CC(C)(O)c1cn2ccc(Nc3ncc(Cl)c(NC4CCN(c5ccc(C#N)cn5)CC4)n3)cc2n1 [Example 70, 6-(4-((5-chloro-2-((2-(2-hydroxypropan-2-yl)imidazo[1,2-a]pyridin-7-yl)amino)pyrimidin-4-yl)amino)piperidin-1-yl)nicotinonitrile]
6 | 13 nM | 112 nM |  | CC(C)(O)Cc1cn2cc(Nc3ncc(Cl)c(NC4CCN(c5ccc(C#N)cn5)CC4)n3)ccc2n1 [Example 73, 6-(4-((5-chloro-2-((2-(2-hydroxy-2-methylpropyl)imidazo[1,2-a]pyridin-6-yl)amino)pyrimidin-4-yl)amino)piperidin-1-yl)nicotinonitrile]
7 | 46 nM | 64 nM |  | CC(C)(O)Cc1nnc2cc(Nc3ncc(Cl)c(NC4CCN(c5ccc(C#N)cn5)CC4)n3)ccn12 [Example 74, 6-(4-((5-chloro-2-((3-(2-hydroxy-2-methylpropyl)-[1,2,4]triazolo[4,3-a]pyridin-7-yl)amino)pyrimidin-4-yl)amino)piperidin-1-yl)nicotinonitrile]

Second part, the compound before the results:

Row | Compound | IC50 [1] | IC50 [2] | IC50 [3]
8 | CCC1CN(c2ccc(C#N)cn2)CCC1Nc1nc(Nc2ccn3c(C)cnc3c2)ncc1Cl (centres unmarked) [Example 2, 6-(4-((5-chloro-2-((3-methylimidazo[1,2-a]pyridin-7-yl)amino)pyrimidin-4-yl)amino)-3-ethylpiperidin-1-yl)nicotinonitrile] | 46 nM |  | 
9 | CCC1CN(c2ccc(C#N)nn2)CCC1Nc1nc(Nc2ccn3c(C)cnc3c2)ncc1Cl (centres unmarked) [Example 3, 6-(4-((5-chloro-2-((3-methylimidazo[1,2-a]pyridin-7-yl)amino)pyrimidin-4-yl)amino)-3-ethylpiperidin-1-yl)pyridazine-3-carbonitrile] | 102 nM |  | 
10 | Cc1cnc2cc(Nc3ncc(Cl)c(NC4CCN(c5ccc(C#N)nn5)CC4)n3)ccn12 [Example 12, 6-(4-((5-chloro-2-((3-methylimidazo[1,2-a]pyridin-7-yl)amino)pyrimidin-4-yl)amino)piperidin-1-yl)pyridazine-3-carbonitrile] | 115 nM |  | 
11 | N#Cc1ccc(N2CCC(Nc3nc(Nc4ccn5c(C(F)F)nnc5c4)ncc3Cl)CC2)nc1 [Example 30, 6-(4-((5-chloro-2-((3-(difluoromethyl)-[1,2,4]triazolo[4,3-a]pyridin-7-yl)amino)pyrimidin-4-yl)amino)piperidin-1-yl)nicotinonitrile] |  | 127 nM | 4 nM
12 | CC(C)(O)c1nc2cc(Nc3ncc(Cl)c(NC4CCN(c5ccc(C#N)nn5)CC4)n3)ccn2n1 [Example 55, 6-(4-((5-chloro-2-((2-(2-hydroxypropan-2-yl)-[1,2,4]triazolo[1,5-a]pyridin-7-yl)amino)pyrimidin-4-yl)amino)piperidin-1-yl)pyridazine-3-carbonitrile] | 200 nM | 291 nM | 
13 | N#Cc1ccc(N2CCC(Nc3nc(Nc4ccc5c(c4)nnn5CC4CC4)ncc3Cl)CC2)nc1 [Example 60, 6-(4-((5-chloro-2-((1-(cyclopropylmethyl)-1H-benzo[d][1,2,3]triazol-5-yl)amino)pyrimidin-4-yl)amino)piperidin-1-yl)nicotinonitrile] | 216 nM |  | 
14 | CC(O)Cn1cnc2cc(Nc3ncc(Cl)c(NC4CCN(c5ccc(C#N)cn5)CC4)n3)ccc21 (centres unmarked) [Example 61, 6-(4-((5-chloro-2-((1-(2-hydroxypropyl)-1H-benzo[d]imidazol-5-yl)amino)pyrimidin-4-yl)amino)piperidin-1-yl)nicotinonitrile] | 50 nM | 5 nM | 0.9 nM
15 | CC(C)(O)Cc1nnc2cc(Nc3ncc(Cl)c(NC4CCN(c5ccc(C#N)nn5)CC4)n3)ccn12 [Example 75, 6-(4-((5-chloro-2-((3-(2-hydroxy-2-methylpropyl)-[1,2,4]triazolo[4,3-a]pyridin-7-yl)amino)pyrimidin-4-yl)amino)piperidin-1-yl)pyridazine-3-carbonitrile] | 184 nM | 202 nM | 
16 | CC(C)(O)Cc1nc2cc(Nc3ncc(Cl)c(NC4CCN(c5ccc(C#N)nn5)CC4)n3)ccn2n1 [Example 77, 6-(4-((5-chloro-2-((2-(2-hydroxy-2-methylpropyl)-[1,2,4]triazolo[1,5-a]pyridin-7-yl)amino)pyrimidin-4-yl)amino)piperidin-1-yl)pyridazine-3-carbonitrile] | 132 nM | 353 nM | 9 nM
